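Cultured in 96-well plates, cells were exposed to test compound for 48 hours across five concentrations. At the GI50, growth is halved.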 The source made the active and inactive calls. Cut-off read from the data, not from the text of the source: active = GI50 up to about 1.1 µM and inactive = higher.
Key:
Test in all cases: NCI anticancer screen, dose series, 48 h
CCRF-CEM = system: CCRF-CEM
SNB-75 = system: SNB-75
HCT-116 = system: HCT-116
EKVX = system: EKVX
UACC-257 = system: UACC-257
LOX IMVI = system: LOX IMVI
SK-OV-3 = system: SK-OV-3
IGROV-1 = system: IGROV-1
OVCAR-3 = system: OVCAR-3
SNB-19 = system: SNB-19
MCF7 = system: MCF7
M14 = system: M14
RXF 393 = system: RXF 393
SK-MEL-2 = system: SK-MEL-2
CAKI-1 = system: CAKI-1
SN12C = system: SN12C
MDA-MB-435 = system: MDA-MB-435
NCI-H460 = system: NCI-H460
NCI-H522 = system: NCI-H522
SR = system: SR

| Compound | GI50 (CCRF-CEM) | GI50 (SNB-75) | GI50 (HCT-116) | GI50 (EKVX) | GI50 (UACC-257) | GI50 (LOX IMVI) | GI50 (SK-OV-3) | GI50 (IGROV-1) | GI50 (OVCAR-3) | GI50 (SNB-19) | GI50 (MCF7) | GI50 (M14) | GI50 (RXF 393) | GI50 (SK-MEL-2) | GI50 (CAKI-1) | GI50 (SN12C) | GI50 (MDA-MB-435) | GI50 (NCI-H460) | GI50 (NCI-H522) | GI50 (SR) |
| --- | --- | --- | --- | --- | --- | --- | --- | --- | --- | --- | --- | --- | --- | --- | --- | --- | --- | --- | --- | --- |
| Cc1ccsc1/C=N/Nc1nncc2ccccc12 | 53.2 µM (inactive) | > 100 µM (inactive) | > 100 µM (inactive) | > 100 µM (inactive) | > 100 µM (inactive) | 97.1 µM (inactive) | 70.6 µM (inactive) | 15.9 µM (inactive) | > 100 µM (inactive) | > 100 µM (inactive) | 37 µM (inactive) | > 100 µM (inactive) | 15.8 µM (inactive) | 14.1 µM (inactive) | > 100 µM (inactive) | > 100 µM (inactive) | > 100 µM (inactive) |  |  |  |
| CCCNC(=O)c1cc(OC)c(OC)cc1NC(=O)C12CC3CC(CC(C3)C1)C2 | 28.2 µM (inactive) |  | 16.8 µM (inactive) | 18.2 µM (inactive) | 17.6 µM (inactive) | 19.5 µM (inactive) |  | 22.9 µM (inactive) | 19 µM (inactive) | 16.4 µM (inactive) | 22.2 µM (inactive) | 15.2 µM (inactive) | 6.81 µM (inactive) | 15.5 µM (inactive) | 19.8 µM (inactive) | 16.1 µM (inactive) | 17.9 µM (inactive) | 20.6 µM (inactive) | 12.3 µM (inactive) |  |
| Cc1cn(CC2=NCC(O)CN2)c(=O)[nH]c1=O (stereo not drawn) | > 100 µM (inactive) |  | > 100 µM (inactive) | > 100 µM (inactive) | > 100 µM (inactive) | > 100 µM (inactive) | > 100 µM (inactive) | > 100 µM (inactive) | > 100 µM (inactive) | > 100 µM (inactive) | > 100 µM (inactive) | > 100 µM (inactive) | > 100 µM (inactive) | > 100 µM (inactive) | > 100 µM (inactive) | > 100 µM (inactive) | > 100 µM (inactive) | > 100 µM (inactive) | > 100 µM (inactive) |  |
| CC(=O)Oc1ccc(N2C(=O)C3c4[nH]c5ccccc5c4C4CCC(C(C)(C)C)CC4C3C2=O)cc1 (stereo not drawn) | 10 µM (inactive) |  | 2.15 µM (inactive) | 3.07 µM (inactive) | 11.1 µM (inactive) | 4.41 µM (inactive) | 10.8 µM (inactive) | 5.97 µM (inactive) | 2.69 µM (inactive) | 3.08 µM (inactive) | 2.88 µM (inactive) | 4.01 µM (inactive) | 2.46 µM (inactive) | 5.13 µM (inactive) | 5.31 µM (inactive) | 2.14 µM (inactive) | 10.4 µM (inactive) | 2.55 µM (inactive) | 4.45 µM (inactive) |  |
| N#Cc1nc(C2=C(Cl)c3ccccc3OC2)[nH]c1C#N | 11.5 µM (inactive) |  |  | 31.5 µM (inactive) |  | 16.9 µM (inactive) | 36.7 µM (inactive) | 30.1 µM (inactive) | 27.7 µM (inactive) | 29.8 µM (inactive) | 22.8 µM (inactive) | 19.4 µM (inactive) | 13.9 µM (inactive) |  | 58.6 µM (inactive) | 27.5 µM (inactive) |  | 22 µM (inactive) |  |  |
| COc1ccc2c(-c3csc(-c4c[nH]c5ccc(Br)cc45)n3)c[nH]c2c1 | 27.7 µM (inactive) |  | 31.3 µM (inactive) | 32.1 µM (inactive) | 88.9 µM (inactive) | 64.1 µM (inactive) |  | 81.5 µM (inactive) | > 100 µM (inactive) | > 100 µM (inactive) | 54.1 µM (inactive) | > 100 µM (inactive) | 11.9 µM (inactive) | 19.1 µM (inactive) | 85.7 µM (inactive) | 58.1 µM (inactive) | 7.69 µM (inactive) | 23.2 µM (inactive) | 23.1 µM (inactive) |  |
| O=C(OCC1CCCN2CCCCC12)c1cccnc1 (stereo not drawn) | > 100 µM (inactive) | > 100 µM (inactive) | > 100 µM (inactive) | > 100 µM (inactive) | > 100 µM (inactive) | > 100 µM (inactive) | > 100 µM (inactive) |  |  | > 100 µM (inactive) | > 100 µM (inactive) |  | > 100 µM (inactive) | > 100 µM (inactive) | > 100 µM (inactive) | > 100 µM (inactive) | > 100 µM (inactive) | > 100 µM (inactive) |  |  |
| CC(C)Oc1c(O)c2c3c(oc(=O)n3C=CC2c2ccccc2)c1OC(C)C (stereo not drawn) |  | 21.9 µM (inactive) | 28.8 µM (inactive) | 22.3 µM (inactive) | 25.1 µM (inactive) | 37.8 µM (inactive) | > 100 µM (inactive) | 21.9 µM (inactive) | 21.5 µM (inactive) | 20.3 µM (inactive) | 19.6 µM (inactive) | 20 µM (inactive) |  | 15.7 µM (inactive) | 29.2 µM (inactive) | 36.5 µM (inactive) | > 10 µM (inactive) | 14.7 µM (inactive) |  |  |
| CN(C)CCCn1cnc2ncccc2c1=O | > 100 µM (inactive) | > 100 µM (inactive) | > 100 µM (inactive) | > 100 µM (inactive) |  | > 100 µM (inactive) | > 100 µM (inactive) | > 100 µM (inactive) | > 100 µM (inactive) | > 100 µM (inactive) |  | > 100 µM (inactive) | > 100 µM (inactive) | > 100 µM (inactive) | > 100 µM (inactive) | > 100 µM (inactive) |  | > 100 µM (inactive) | > 100 µM (inactive) | > 100 µM (inactive) |
| CC1(C)CC(=O)C(/C(=N/NC(=S)NN)C(=O)Nc2nc3ccc([N+](=O)[O-])cc3s2)C(=O)C1 | 38.2 µM (inactive) | > 100 µM (inactive) | > 100 µM (inactive) | > 100 µM (inactive) | > 100 µM (inactive) | > 100 µM (inactive) | > 100 µM (inactive) | > 100 µM (inactive) | 67.9 µM (inactive) | > 100 µM (inactive) |  | > 100 µM (inactive) | > 100 µM (inactive) | > 100 µM (inactive) | > 100 µM (inactive) | > 100 µM (inactive) |  | > 100 µM (inactive) | > 100 µM (inactive) | > 100 µM (inactive) |
| Cc1nc(=O)n2c(C)n[nH]c2c1C(=O)O | > 100 µM (inactive) |  | > 100 µM (inactive) | > 100 µM (inactive) |  | > 100 µM (inactive) | > 100 µM (inactive) | > 100 µM (inactive) | > 100 µM (inactive) |  |  | > 100 µM (inactive) | 31.1 µM (inactive) | > 100 µM (inactive) | > 100 µM (inactive) | > 100 µM (inactive) |  | > 100 µM (inactive) | > 100 µM (inactive) | > 100 µM (inactive) |
| O=C(C/C(=N\NC(=O)C[n+]1ccccc1)C(=O)Nc1nc2ccc([N+](=O)[O-])cc2s1)CC(c1ccccc1)c1c(O)c2ccccc2oc1=O (stereo not drawn) | > 100 µM (inactive) |  | > 100 µM (inactive) | > 100 µM (inactive) | > 100 µM (inactive) |  | > 100 µM (inactive) | > 100 µM (inactive) | > 100 µM (inactive) | > 100 µM (inactive) |  | > 100 µM (inactive) | > 100 µM (inactive) | > 100 µM (inactive) | > 100 µM (inactive) | > 100 µM (inactive) |  | > 100 µM (inactive) | 99.5 µM (inactive) | > 100 µM (inactive) |
| C[C@]12CC[C@H]3[C@@H](CC[C@]4(O)C[C@@H](O)CC[C@]34/C=N/O)[C@@]1(O)CC[C@@H]2C1=COC(=O)C1 |  | 0.332 µM (active) | 0.0403 µM (active) | 0.1 µM (active) | 0.299 µM (active) | 0.136 µM (active) | 0.0436 µM (active) | 0.136 µM (active) | 0.0472 µM (active) | 0.673 µM (active) |  | 0.289 µM (active) | 0.0318 µM (active) | 0.255 µM (active) | 0.0363 µM (active) | 0.251 µM (active) | 0.257 µM (active) | 0.0403 µM (active) | 0.0323 µM (active) | 0.0504 µM (active) |
| O=C1C(NCCc2ccc(O)c([N+](=O)[O-])c2)=CC(=O)c2[nH]cnc21 |  |  | 24.7 µM (inactive) | 27.4 µM (inactive) | 18.3 µM (inactive) | 15.8 µM (inactive) |  | 29.9 µM (inactive) | 15.2 µM (inactive) | 89.5 µM (inactive) | 32 µM (inactive) | 15 µM (inactive) |  | 16 µM (inactive) |  | 26.2 µM (inactive) | 18.6 µM (inactive) | 24.8 µM (inactive) | 18.6 µM (inactive) |  |
| COC(=O)C1=Cc2cc3c(cc2[C@H](c2ccc4c(c2)OCO4)C1C(=O)OC)OCO3 (stereo partly drawn) | > 100 µM (inactive) | 44.8 µM (inactive) | 41.7 µM (inactive) | 46.8 µM (inactive) | > 100 µM (inactive) | > 100 µM (inactive) | > 100 µM (inactive) | 1.73 µM (inactive) | 44.9 µM (inactive) | > 100 µM (inactive) |  | 68.1 µM (inactive) | 80.4 µM (inactive) |  | 74.1 µM (inactive) | > 100 µM (inactive) |  | 89.9 µM (inactive) |  | 59.4 µM (inactive) |
| Cc1c([C@H](C)[C@@H]2NC[C@@H](C)C[C@H]2O)ccc2c1C[C@H]1[C@H]2CC=C2C[C@@H](O)CC[C@@]21C [VERATRAMINE] | 16.1 µM (inactive) | 17.5 µM (inactive) | 14.3 µM (inactive) | 2.34 µM (inactive) | 13.2 µM (inactive) | 11.6 µM (inactive) | 23.8 µM (inactive) | 16.1 µM (inactive) | 15.6 µM (inactive) | 27.8 µM (inactive) | 15.4 µM (inactive) | 15.7 µM (inactive) | 17.5 µM (inactive) |  | 26.6 µM (inactive) | 20.4 µM (inactive) | 12.9 µM (inactive) | 16.9 µM (inactive) | 13 µM (inactive) |  |

— ChEMBL document CHEMBL1201862, “PubChem BioAssay data set” (2004)
